US6949566B2, “Thiazole and oxazole derivatives” (Shionogi & Co. Ltd., priority 2000, dated 2005)

What was measured:
Assay type in all cases: biochemical
MMP-13 = biological target: T1, MMP-13 (Homo sapiens, UniProt P45452); test: Assay for inhibitory activities on MMPs (fluorogenic peptide substrate), MMP-13; conditions: catalytic domain 104Tyr-267Gly; substrate MOCAc-Pro-Leu-Gly-Leu-A2Pr(DNP)-Ala-Arg-NH2
T1 construct: catalytic domain (^104Tyr˜^267Gly) was amplified with RT-PCR; His-tag; enterokinase digestion-site; made in house; host or cells: Escherichia coli
Experimental: (§1) In regard to MMP-13, mRNA was prepared from carcinoma cell SW1353 derived from human cartilage stimulate by IL-1, TNF and catalytic domain (^104Tyr˜^267Gly) was amplified with RT-PCR. This was cloned in Escherichia. coli expression vector pTrc99AHE inserted with His-tag sequence and enterokinase digestion-site, induced and expressed by IPTG (Isopropyl-β-D-thiogalactopyranoside) and expressed in a insoluble fraction. Isolation of MMP-13 from an insoluble fraction was carried out by dissolving in modifier (6M urea) by a usual method and purification with metal chelate chromatography (Ni Chelateing Sepharose). And then removing modifier (6M urea) with dialyze and refolding of the enzyme spontaneously gave activated MMP-13.
(§2) The enzymatic activity on MMPs was analyzed by the method described in “C. Graham Knight, Frances Willenbrock and Gillian Murphy: A novel coumarin-labelled peptide for sensitive continuous assays of the matrix metalloproteinases: FEBS LETT., 296, (1992), 263-266”. The substrate MOCAc-Pro-Leu-Gly-Leu-A2Pr(DNP)-Ala-Arg-NH2 was purchased from Peptide Institute, Inc., Osaka, Japan. The measurement of the inhibitory activities (IC50) was carried out by the following four methods;
(§3) (A) Reaction with substrate, enzyme (MMPs) and inhibitor
(§4) (B) Reaction with substrate and inhibitor, without enzyme
(§5) (C) Reaction with substrate and enzyme (MMPs), without inhibitor
(§6) (D) Reaction with substrate only
(§7) IC50 values were calculated by using the following formula and each fluorescence values of above four methods (A to D). % inhibition={1−(A−B)/(C−D)}×100 IC50 means the concentration required to inhibit 50% of the enzyme activity.

MMP-9 = biological target: T2, MMP-9 (Homo sapiens, UniProt P14780); test: Assay for inhibitory activities on MMPs (fluorogenic peptide substrate), MMP-9; conditions: MMP-9 from HT1080 cells, activated by TPCK-Trypsin; substrate MOCAc-Pro-Leu-Gly-Leu-A2Pr(DNP)-Ala-Arg-NH2
T2 construct: endogenous in cells; host or cells: HT1080 human fibrosarcoma cells, TPA-stimulated; enzyme purified from conditioned medium
Text: MMP-9 was isolated and purified by procedures described in as follows: Yasunori Okada, Yukio Gonoji, Katsumi Naka, Katsuro Tomita, Isao Nakanishi, Kazushi Iwata, Kyoko Yamashita, and Taro Hayakawa: Matrix metalloproteinase 9 (92-kDa gelatinase/type IV collagenase) from HT1080 human fibrosarcoma cells. Purification and activation of the precursor and enzymic properties J. Biol. Chem., 1992, 267 21712-21719, in combination with others: 1)Yasunori Okada, Tatsuhisa Morodomi, Jan J, Enghild, ko Suzuki, Atsushi Yasui, Isao Nakanishi, Guy Salvesen and Hideaki Nagase: Matrix metalloproteinase 2 from human rheumatoid synovial fibroblasts. Purification and activation of the precursor and enzymic properties. Eur. J. Biochem. 1990, 194 721-730; 2)Robin V Ward, Rosalind M Hembry, John J Reynolds and Gillian Murphy: The purification of tissue inhibitor of metalloproteinase-2 from its 72 kDa progelatinase complex. Biochem. J. 1991 278 179-187. In detail, human fibrosarcoma ATCC HT1080 cell line was cultured to confluent in Dulbecco's Modified Medium (DMEM) containing 10% fetal-calf serum at 37° C. for 48 hours. Subsequently, the medium of confluent culture was changed to serum-free DMEM medium. To obtain MMP-9, Phorbol-12-myristate-13-acetate (TPA) must be added to this serum-free DMEM medium at a concentration of 50 ng/ml. The TPA treated medium was centrifuged at 3000 rpm for 15 min and the supernatant was concentrated to 450 ml by a Toyo-Roshi UP-20 apparatus with an ultrafiltration membrane. Then, proMMP-9 in this concentrated solution was purified by using columns of Gelatin-Sepharose and Concanavalin A-Sepharose. The pool containing proMMP-9 was dialyzed, concentrated (Toyo-Roshi UP-20) and applied to columns of Sephacryl S-200 and Green A matrix for the separation from TIMPs. The obtained proMMP-9 fraction was activated by TPCK-Trypsin (Final conc. 3 μg/501 μl React Mix.).
as §2, §3, §4, §5, §6, §7

MMP-2 = biological target: T3, MMP-2 (Homo sapiens, UniProt P08253); test: Assay for inhibitory activities on MMPs (fluorogenic peptide substrate), MMP-2; conditions: purchased MMP-2; substrate MOCAc-Pro-Leu-Gly-Leu-A2Pr(DNP)-Ala-Arg-NH2
T3 construct: purchased Calbiochem-Novabiochem International, Inc
T3 sequence (P08253 110-660): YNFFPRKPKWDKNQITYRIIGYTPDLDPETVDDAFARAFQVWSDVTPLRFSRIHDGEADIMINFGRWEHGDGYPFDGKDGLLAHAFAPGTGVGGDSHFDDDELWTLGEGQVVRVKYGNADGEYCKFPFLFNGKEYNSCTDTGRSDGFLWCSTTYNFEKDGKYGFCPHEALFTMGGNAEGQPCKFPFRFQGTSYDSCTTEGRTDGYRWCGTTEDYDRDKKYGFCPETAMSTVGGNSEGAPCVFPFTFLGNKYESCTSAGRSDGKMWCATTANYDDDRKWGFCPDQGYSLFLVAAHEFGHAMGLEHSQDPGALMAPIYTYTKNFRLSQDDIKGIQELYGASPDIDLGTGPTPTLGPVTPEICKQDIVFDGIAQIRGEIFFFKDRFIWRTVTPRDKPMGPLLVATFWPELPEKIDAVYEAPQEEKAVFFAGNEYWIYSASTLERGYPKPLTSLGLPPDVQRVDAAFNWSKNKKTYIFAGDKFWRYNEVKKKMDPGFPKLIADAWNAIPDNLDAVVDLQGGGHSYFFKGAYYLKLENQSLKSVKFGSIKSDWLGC
Experimental: MMP-2 was purchased from Calbiochem-Novabiochem International, Inc.
as §2, §3, §4, §5, §6, §7

MMP-8 = biological target: T4, MMP-8 (Homo sapiens, UniProt P22894); test: Assay for inhibitory activities on MMPs (fluorogenic peptide substrate), MMP-8; conditions: catalytic domain 99Phe-262Gly; substrate MOCAc-Pro-Leu-Gly-Leu-A2Pr(DNP)-Ala-Arg-NH2
T4 construct: catalytic domain (^99Phe˜^262Gly) was amplified with PCR; His-tag; enterokinase digestion-site; made in house; host or cells: Escherichia coli
Text: In regard to MMP-8, catalytic domain (^99Phe˜^262Gly) was amplified with PCR using commercial available Human Bone Marrow cDNA. This was cloned in Escherichia. coli expression vector pTrc99AHE inserted with His-tag sequence and enterokinase digestion-site, induced and expressed by IPTG (Isopropyl-β-D-thiogalactopyranoside) and expressed in a insoluble fraction (Thau F. Ho, M. Walid Qoronfleh, Robert C. Wahl, Trica A. Pulvino, Karen J. Vavra, Joe Falvo, Tracey M. Banks, Patricia G. Brake and Richard B. Ciccarelli: Gene expression, purification and characterization of recombinant human neutrophil collagenase. Gene 146, (1994) 297-301, Prepared by the a improved method of this material). Isolation of MMP-8 from an insoluble fraction was carried out by dissolving in modifier (6M urea) by a usual method and purification with metal chelate chromatography. And then removing modifier (6M urea) with dialysis and refolding of the enzyme spontaneously gave activated MMP-8.
as §2, §3, §4, §5, §6, §7

MMP-12 = biological target: T5, MMP-12 (Homo sapiens, UniProt P39900); test: Assay for inhibitory activities on MMPs (fluorogenic peptide substrate), MMP-12; conditions: catalytic domain 100Phe-263Gly; substrate MOCAc-Pro-Leu-Gly-Leu-A2Pr(DNP)-Ala-Arg-NH2
T5 construct: catalytic domain(^100Phe˜^263Gly) was amplified with RT-PCR; His-tag; enterokinase digestion-site; made in house; host or cells: Escherichia coli
Experimental: as §1, with “MMP-12,” for “MMP-13, mRNA was prepared from carcinoma cell SW1353 derived from human cartilage stimulate by IL-1, TNF and”, “domain(^100Phe˜^263Gly)” for “domain (^104Tyr˜^267Gly)”, “RT-PCR from Human Placenta Total RNA.” for “RT-PCR.”, “MMP-12” for “MMP-13”, “dialysis” for “dialyze”, “MMP-12.” for “MMP-13.”
as §2, §3, §4, §5, §6, §7

T5 sequence (P39900 100-263): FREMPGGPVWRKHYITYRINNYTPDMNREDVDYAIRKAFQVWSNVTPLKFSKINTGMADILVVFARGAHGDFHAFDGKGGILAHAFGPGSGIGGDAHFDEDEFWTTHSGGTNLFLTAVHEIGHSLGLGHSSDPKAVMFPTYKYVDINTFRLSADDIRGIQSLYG
T2 sequence (P14780 107-707 limits assumed): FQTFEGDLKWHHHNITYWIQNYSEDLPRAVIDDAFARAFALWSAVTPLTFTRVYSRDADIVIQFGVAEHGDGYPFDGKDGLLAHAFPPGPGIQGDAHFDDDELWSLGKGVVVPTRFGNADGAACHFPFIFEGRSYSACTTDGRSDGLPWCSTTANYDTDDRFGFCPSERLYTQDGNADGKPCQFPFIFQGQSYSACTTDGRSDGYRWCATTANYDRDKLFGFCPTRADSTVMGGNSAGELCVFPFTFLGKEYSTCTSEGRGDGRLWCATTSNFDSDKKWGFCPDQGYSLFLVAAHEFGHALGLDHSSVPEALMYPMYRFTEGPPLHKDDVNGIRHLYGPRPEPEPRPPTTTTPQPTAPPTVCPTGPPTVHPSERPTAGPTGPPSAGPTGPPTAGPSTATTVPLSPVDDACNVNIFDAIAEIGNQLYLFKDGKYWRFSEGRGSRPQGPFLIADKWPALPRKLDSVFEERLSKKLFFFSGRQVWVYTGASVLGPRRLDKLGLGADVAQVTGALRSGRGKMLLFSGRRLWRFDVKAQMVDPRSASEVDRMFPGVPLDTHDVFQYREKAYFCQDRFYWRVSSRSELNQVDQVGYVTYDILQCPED
T4 sequence (P22894 99-262): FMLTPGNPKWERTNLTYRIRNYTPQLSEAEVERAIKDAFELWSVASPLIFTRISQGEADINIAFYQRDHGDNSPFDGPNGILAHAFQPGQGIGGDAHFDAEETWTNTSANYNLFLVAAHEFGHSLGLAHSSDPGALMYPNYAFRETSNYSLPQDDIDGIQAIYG

Row | IC50 (MMP-13) [nM] | IC50 (MMP-9) [nM] | IC50 (MMP-2) [nM] | IC50 (MMP-8) [nM] | IC50 (MMP-12) [nM] | SMILES
1 | 4.82 | 5.69 | 0.484 | 51.7 | 0.949 | C[C@@H](NS(=O)(=O)c1ccc(-c2ncc(-c3ccc(Cl)cc3)s2)cc1)C(=O)O [Compound B-25]
2 | 15.3 | 13.3 | 0.901 | 25.2 | 3.29 | C[C@@H](NS(=O)(=O)c1ccc(-c2ncc(-c3ccc(F)cc3)s2)cc1)C(=O)O [Compound B-27]
3 | 7.43 | 11.6 | 2.14 | 104 | 2.54 | O=C(O)C[C@@H](NS(=O)(=O)c1ccc(-c2ncc(-c3ccc(Cl)cc3)s2)cc1)C(=O)O [Compound B-38]
4 | 12.4 | 173 | 2.41 | 373 | 2.54 | C[C@@H](NS(=O)(=O)c1ccc(-c2ncc(-c3ccc4ccccc4c3)s2)cc1)C(=O)O [Compound B-53]
5 | 6.82 | 53.6 | 1.63 | 24.9 | 3.35 | COc1ccc(-c2cnc(-c3ccc(S(=O)(=O)N[C@H](CC(C)C)C(=O)O)cc3)s2)cc1 [Compound B-34]
6 | 11 | 24 | 1.17 | 57 | 1.08 | CSCC[C@@H](NS(=O)(=O)c1ccc(-c2ncc(-c3ccc(Cl)cc3)s2)cc1)C(=O)O [Compound B-46]
7 | 2.04 | 16.2 | 0.479 | 15.4 | 1.37 | COc1ccc(-c2cnc(-c3ccc(S(=O)(=O)N[C@H](C)C(=O)O)cc3)s2)cc1 [Compound B-23]
8 | 22 | 19.9 | 1.47 | 58.2 | 5.86 | C[C@@H](NS(=O)(=O)c1ccc(-c2ncc(-c3ccccc3)s2)cc1)C(=O)O [Compound B-21]
9 | 14.1 | 54.4 | 8.3 | 42.5 | 1.24 | C[C@H](NS(=O)(=O)c1ccc(-c2ncc(-c3ccc(Cl)cc3)s2)cc1)C(=O)O [Compound B-26]

Continued, compound first:

Row | SMILES | IC50 (MMP-13) [nM] | IC50 (MMP-9) [nM] | IC50 (MMP-2) [nM] | IC50 (MMP-8) [nM] | IC50 (MMP-12) [nM]
10 | CC(C)C[C@@H](NS(=O)(=O)c1ccc(-c2ncc(-c3ccc(Cl)cc3)o2)cc1)C(=O)O [Compound A-30] | 226 | 502 | 44.4 | 320 | 11.4
11 | CC(C)[C@@H](NS(=O)(=O)c1ccc(-c2ncc(-c3ccc(Br)cc3)s2)cc1)C(=O)O [Compound B-10] | 3.38 | 3.96 | 0.373 | 31.7 | 0.643
12 | CC(C)[C@H](NS(=O)(=O)c1ccc(-c2ncc(-c3ccc(Cl)cc3)o2)cc1)C(=O)O [Compound A-24] | 678 | 2370 | 670 | 337 | 10
13 | O=C(O)[C@@H](Cc1ccccc1)NS(=O)(=O)c1ccc(-c2ncc(-c3ccc(F)cc3)s2)cc1 [Compound B-17] | 12.1 | 22.6 | 2.09 | 22.4 | 3.21
14 | CC(C)[C@@H](NS(=O)(=O)c1ccc(-c2ncc(-c3ccc(Cl)cc3)s2)cc1)C(=O)O [Compound B-4] | 5.51 | 5.71 | 1.27 | 56.9 | 3.06
15 | CC(C)[C@@H](NS(=O)(=O)c1ccc(-c2ncc(-c3ccc(F)cc3)s2)cc1)C(=O)O [Compound B-8] | 9.53 | 11.1 | 1.38 | 10.5 | 1.96
16 | CC(C)[C@H](NS(=O)(=O)c1ccc(-c2ncc(-c3ccc(Cl)cc3)s2)cc1)C(=O)O [Compound B-5] | 6.18 | 14.8 | 5.24 | 25.7 | 1.33
17 | CC(C)[C@H](NS(=O)(=O)c1ccc(-c2ncc(-c3ccccc3)s2)cc1)C(=O)O [Compound B-3] | 15 | 70.5 | 7.45 | 18.9 | 3.16
